IC50 and EC50 data for 19 compounds are collected here from patent US20070099915A1, “INHIBITORS OF THE HIV INTEGRASE ENZYME” (PFIZER INC., priority 2005, published 2007).

The target in experiment [1] is T1, Full-length wild type HIV-1 integrase (SF1) (Human immunodeficiency virus type 1 group M subtype B, UniProt P04585).
T1 construct: made in house; host or cells: E. coli BL21 (DE3)
The experiment in a line: Integrase strand-transfer scintillation proximity assay. The format is biochemical. The source says: The annealed product represents preprocessed viral ds-DNA derived from the LTR U5 sequence of the viral genome. A ds-DNA control to test for non-specific interactions was made using a 3′ di-deoxy derivative of oligonucleotide #1 annealed to oligonucleotide #2. The CA overhang at the 5′ end of the non-biotinylated strand of the ds-DNA was created artificially by using a complimentary DNA oligonucleotide shortened by 2 base pairs. This configuration eliminates the requisite 3′ processing step of the integrase enzyme prior to the strand-transfer mechanism.
The annealed product had overhanging 3′ ends of poly(dA). […] The radiolabeled product was purified using a NENSORB cartridge and stored in stabilized aqueous solution (PerkinElmer).
Reagents: Streptavidin-coated polyvinyltoluene (PVT) SPA beads were purchased from Amersham Biosciences (Piscataway, N.J.). Cesium chloride was purchased from Shelton Scientific, Inc. (Shelton, Conn.). White, polystyrene, flat-bottom, non-binding surface, 96-well plates were purchased from Corning. All other buffer components were purchased from Sigma (St. Louis, Mo.) unless otherwise indicated.
Enzyme Construction: Full-length wild type HIV-1 integrase (SF1) sequence (amino acids 1-289) was constructed in a pET24a vector (Novagen, Madison, Wis.).
Enzyme Purification: Full length wild-type HIV Integrase was expressed in E. coli BL21 (DE3) cells and induced with 1 mM isopropyl-1 thio-β-D-galactopyranoside (IPTG) when cells reached an optical density between 0.8-1.0 at 600 nm. Cells were lysed by microfluidation in 50 mM HEPES pH 7.0, 75 mM NaCl, 5 mM DTT, 1 mM 4-(2-Aminoethyl)benzenesulfonylfluoride HCl (AEBSF). Lysate was then centrifuged 20 minutes at 11 k rpm in GSA rotor in Sorvall RC-5B at 4° C. Supernant was discarded and pellet resuspended in 50 mM HEPES pH 7.0, 750 mM NaCl, 5 mM DTT, 1 mM AEBSF and homogenized in a 40 mL Dounce homogenizer for 20 minutes on ice. Homogenate was then centrifuged 20 minutes at 11 k rpm in SS34 rotor in Sorvall RC-5B at 4° C. Supernant was discarded and pellet resuspended in 50 mM HEPES pH 7.0, 750 mM NaCl, 25 mM CHAPS, 5 mM DTT, 1 mM AEBSF. Preparation was then centrifuged 20 minutes at 11 k rpm in SS34 rotor in Sorvall RC-5B at 4° C.
Supernant was then diluted 1:1 with 50 mM HEPES pH 7.0, 25 mM CHAPS, 1 mM DTT, 1 mM AEBSF and loaded onto a Q-Sepharose column pre-equilibrated with 50 mM HEPES, pH 7.0, 375 mM NaCl, 25 mM CHAPS, 1 mM DTT, 1 mM AEBSF. The flow through peak was collected and NaCl diluted to 0.1 M with 50 mM HEPES pH 7.0, 25 mM CHAPS, 1 mM DTT, 0.5 mM AEBSF and loaded onto a SP-Sepharose column pre-equilibrated with 50 mM HEPES pH 7.0, 100 mM NaCl, 25 mM CHAPS, 1 mM DTT, 0.5 mM AEBSF. After washing the column with the equilibration buffer, a 100 to 400 mM NaCl gradient was run. The eluted integrase was concentrated and run on a S-300 gel diffusion column using 50 mM HEPES pH 7.0, 500 mM NaCl, 25 mM CHAPS, 1 mM DTT, 0.5 mM AEBSF. […] All columns were run in a 4° C. cold room.
Viral DNA Bead Preparation: Streptavidin-coated SPA beads were suspended to 20 mg/mL in 25 mM 3-morpholinopropanesulfonic acid (MOPS) (pH 7.2) and 1.0% NaN3. Biotinylated viral DNA was bound to the hydrated SPA beads in a batch process by combining […] of ds-DNA to 1 mg of suspended SPA beads (10 μL of 50 μM viral DNA to 1 mL of 20 mg/mL SPA beads). The mixture was incubated at 22° C. for a minimum of 20 min. with occasional mixing followed by centrifugation at 2500 rpm for 10 min.
(Scintillation proximity formats need no separation of bound from free tracer.)

Experiment [2] relates to HIV-1 RF virus in CEM-SS cells. Put plainly: HIV-1 cell protection assay (XTT dye reduction). It is filed as cell-based. The procedure:
Six days later, 50 μl of XTT solution (1 mg/ml XTT tetrazolium and 20 nM phenazine methosulfate) were added to the wells and the plates were reincubated for four hours. Viability, as determined by the amount of XTT formazan produced, was quantified spectrophotometrically by absorbance at 450 nm.
Data from CPE assays were expressed as the percent of formazan produced in compound-treated cells compared to formazan produced in wells of uninfected, compound-free cells. […] The 50% cytotoxicity concentration (CC50) was calculated as the concentration of compound that decreased the percentage of formazan produced in uninfected, compound-treated cells to 50% of that produced in uninfected, compound-free cells. The therapeutic index was calculated by dividing the cytotoxicity (CC50) by the antiviral activity (EC50).

Where [3] appears, read: strand-transfer SPA, 246 nM integrase, 50 nM host DNA, 37° C., 50 min, read-out: IC50.
Setting [4] is: Human immunodeficiency virus 1, CEM-SS, 144 h.
[5] abbreviates: Human immunodeficiency virus 1, 144 h, RF strain of HIV-1, CEM-SS cells, XTT read-out after six days, read-out: EC50.

Read-outs that look alike come from different tables or passages of the source.

A word on the IC50: it is the point on the concentration scale where inhibition reaches its midpoint. A word on the EC50: it is the concentration that produces a half-maximal response. Take `COC[C@H]1CCCN1C(=O)c1cn(Cc2ccc(F)cc2)c2cnc3c(c12)CCN(O)C3=O` [Example 19, 3-(4-fluorobenzyl)-7-hydroxy-1-{[(2R)-2-(methoxymethyl)pyrrolidin-1-yl]carbonyl}-3,7,8,9-tetrahydro-6H-pyrrolo[2,3-c]-1,7-naphthyridin-6-one]: the IC50 in experiment [1] (setting [3]) turned out to be 36 nM. For the same compound, the EC50 in experiment [2] (setting [4]) was 4.5 nM.

As for `CN(C(=O)c1cn(Cc2ccc(F)cc2)c2cnc3c(c12)CCN(O)C3=O)C1CCOCC1` [Example 20, 3-(4-fluorobenzyl)-7-hydroxy-N-methyl-6-oxo-N-(tetrahydro-2H-pyran-4-yl)-6,7,8,9-tetrahydro-3H-pyrrolo[2,3-c]-1,7-naphthyridine-1-carboxamide], the IC50 in experiment [1] (setting [3]) is 19 nM. In experiment [2] (setting [4]), the EC50 worked out at 52 nM.

For `CN(C1CCCC1)S(=O)(=O)c1cn(Cc2ccc(F)cc2)c2cnc3c(c12)CCN(O)C3=O` [Example 21, N-cyclopentyl-3-(4-fluorobenzyl)-7-hydroxy-N-methyl-6-oxo-6,7,8,9-tetrahydro-3H-pyrrolo[2,3-c]-1,7-naphthyridine-1-sulfonamide], the IC50 in experiment [1] (setting [3]) came out at 905 nM. Moreover, the EC50 in experiment [2] (setting [5]) stood at 120 nM.

As to `COCCOCc1cn(Cc2ccc(F)cc2)c2cnc3c(c12)CCN(O)C3=O` [Example 22, 3-(4-fluorobenzyl)-7-hydroxy-1-[(2-methoxyethoxy)methyl]-3,7,8,9-tetrahydro-6H-pyrrolo[2,3-c]-1,7-naphthyridin-6-one], in experiment [1] (setting [3]), the half-inhibitory concentration (IC50) was found to be 14 nM. Besides, the EC50 in experiment [2] (setting [5]) was determined as 1.5 nM.

`O=C1c2ncc3c(c(CN4CCCC4)cn3Cc3ccc(F)cc3)c2CCN1O` [Example 23, 3-(4-fluorobenzyl)-7-hydroxy-1-(pyrrolidin-1-ylmethyl)-3,7,8,9-tetrahydro-6H-pyrrolo[2,3-c]-1,7-naphthyridin-6-one] yielded an IC50 in experiment [1] of 27 nM. The response in experiment [2] (setting [4]) was half-maximal at 4 nM (EC50).

`O=C1c2ncc3c(c(CO)cn3Cc3ccc(F)cc3)c2CCN1O` [Example 25, 3-(4-fluorobenzyl)-7-hydroxy-1-(hydroxymethyl)-3,7,8,9-tetrahydro-6H-pyrrolo[2,3-c]-1,7-naphthyridin-6-one] registered a half-inhibitory concentration (IC50) in experiment [1] of 12 nM. The compound further had an EC50 in experiment [2] (setting [4]) of 3 nM.

For the compound `O=c1c2ncc3c(c(CO)cn3Cc3ccc(F)cc3)c2ccn1O` [Example 26, 3-(4-fluorobenzyl)-7-hydroxy-1-(hydroxymethyl)-3H-pyrrolo[2,3-c][1,7]naphthyridin-6(7H)-one], the IC50 in experiment [1] (setting [3]) came to 38 nM. Moreover, in experiment [2] (setting [5]), the EC50 was 3 nM.

On to `CN1CCN(Cc2cn(Cc3ccc(F)cc3)c3cnc4c(c23)CCN(O)C4=O)CC1` [Example 29, 3-(4-fluorobenzyl)-7-hydroxy-1-[(4-methylpiperazin-1-yl)methyl]-3,7,8,9-tetrahydro-6H-pyrrolo[2,3-c]-1,7-naphthyridin-6-one], for which, in experiment [1] (setting [3]), the IC50 stood at 28 nM. The EC50 in experiment [2] (setting [5]) came to 3 nM.

As to `O=C1c2ncc3c(c(COC4CCOCC4)cn3Cc3ccc(F)cc3)c2CCN1O` [Example 30, 3-(4-fluorobenzyl)-7-hydroxy-1-[(tetrahydro-2H-pyran-4-yloxy)methyl]-3,7,8,9-tetrahydro-6H-pyrrolo[2,3-c]-1,7-naphthyridin-6-one], the IC50 in experiment [1] (setting [3]) amounted to 42 nM. Besides, the EC50 in experiment [2] (setting [5]) came to 5 nM.

On to `CCOCCOCc1cn(Cc2ccc(F)cc2)c2cnc3c(c12)CCN(O)C3=O` [Example 31, 1-[(2-ethoxyethoxy)methyl]-3-(4-fluorobenzyl)-7-hydroxy-3,7,8,9-tetrahydro-6H-pyrrolo[2,3-c]-1,7-naphthyridin-6-one], for which the IC50 in experiment [1] (setting [3]) was determined as 33 nM. In addition, the EC50 in experiment [2] (setting [5]) came to 5 nM.

`C[C@H](CO)NCc1cn(Cc2ccc(F)cc2)c2cnc3c(c12)CCN(O)C3=O` [Example 33, 3-(4-fluorobenzyl)-7-hydroxy-1-({[(1R)-2-hydroxy-1-methylethyl]amino}methyl)-3,7,8,9-tetrahydro-6H-pyrrolo[2,3-c]-1,7-naphthyridin-6-one]: the IC50 in experiment [1] (setting [3]) worked out at 21 nM. For the same compound, the EC50 in experiment [2] (setting [5]) is 13 nM.

For `CC(NCc1cn(Cc2ccc(F)cc2)c2cnc3c(=O)n(O)ccc3c12)c1ccc(Br)cc1` (centres unmarked) [Example 36, 1-({[1-(4-bromophenyl)ethyl]amino}methyl)-3-(4-fluorobenzyl)-7-hydroxy-3,7-dihydro-6H-pyrrolo[2,3-c]-1,7-naphthyridin-6-one], the IC50 in experiment [1] (setting [3]) was 10 nM. In experiment [2] (setting [5]), the EC50 came out at 3 nM.

With `O=C1c2ncc3c(c(CN4CCCC(F)(F)C4)cn3Cc3ccc(F)cc3)c2CCN1O` [Example 39], the IC50 in experiment [1] (setting [3]) was 10.3 nM. The EC50 in experiment [2] (setting [5]) came to 0.279 nM.

On to `COCCN(Cc1cn(Cc2ccc(F)cc2)c2cnc3c(c12)CCN(O)C3=O)C(C)(C)C` [Example 40, 1-{[tert-butyl(2-methoxyethyl)amino]methyl}-3-(4-fluorobenzyl)-7-hydroxy-3,7,8,9-tetrahydro-6H-pyrrolo[2,3-c]-1,7-naphthyridin-6-one], for which the IC50 in experiment [1] (setting [3]) amounted to 24.4 nM. For the same compound, the EC50 in experiment [2] (setting [5]) was 4.6 nM.

As for `CN(C)C(=O)[C@@H]1CCCN1Cc1cn(Cc2ccc(F)cc2)c2cnc3c(c12)CCN(O)C3=O` [Example 41, 1-{[3-(4-fluorobenzyl)-7-hydroxy-6-oxo-6,7,8,9-tetrahydro-3H-pyrrolo[2,3-c]-1,7-naphthyridin-1-yl]methyl}-N,N-dimethyl-L-prolinamide], the IC50 in experiment [1] (setting [3]) is 28.1 nM. Further, in experiment [2] (setting [5]), the half-maximal effective concentration (EC50) worked out at 29 nM.

For `Cc1cc2c(ncc3c2c(CN(C)C)cn3Cc2ccc(F)cc2)c(=O)n1O` [Example 42, 1-[(dimethylamino)methyl]-3-(4-fluorobenzyl)-7-hydroxy-8-methyl-3,7-dihydro-6H-pyrrolo[2,3-c]-1,7-naphthyridin-6-one], the IC50 in experiment [1] (setting [3]) stood at 8.1 nM. The 50% effective concentration (EC50) in experiment [2] (setting [5]) was determined as 0.43 nM.

Take `Cc1cc2c(ncc3c2c(CN2CCOCC2)cn3Cc2ccc(F)cc2)c(=O)n1O` [Example 43, 3-(4-fluorobenzyl)-7-hydroxy-8-methyl-1-(morpholin-4-ylmethyl)-3,7-dihydro-6H-pyrrolo[2,3-c]-1,7-naphthyridin-6-one]: the IC50 in experiment [1] (setting [3]) was determined as 9.36 nM. For the same compound, the EC50 in experiment [2] (setting [5]) was 0.41 nM.

As for `Cc1c(CN2CCOCC2)c2c(ncc3c2ccn3Cc2ccc(F)cc2)c(=O)n1O` [Example 44, 3-(4-fluorobenzyl)-7-hydroxy-8-methyl-9-(morpholin-4-ylmethyl)-3,7-dihydro-6H-pyrrolo[2,3-c]-1,7-naphthyridin-6-one], in experiment [1], the IC50 was determined as 9.07 nM. The EC50 in experiment [2] (setting [5]) was determined as 0.45 nM.

Take `C[C@@H]1CN(Cc2cn(Cc3ccc(F)cc3)c3cnc4c(c23)CCN(O)C4=O)C[C@H](C)O1` [Example 45, 1-{[(2R,6S)-2,6-dimethylmorpholin-4-yl]methyl}-3-(4-fluorobenzyl)-7-hydroxy-3,7,8,9-tetrahydro-6H-pyrrolo[2,3-c]-1,7-naphthyridin-6-one]: the IC50 in experiment [1] (setting [3]) was determined as 9.07 nM. For the same compound, the EC50 in experiment [2] (setting [5]) stood at 0.45 nM.
